From PubChem BioAssay AID330 (DTP/NCI, 2004)
Where “and” joins values, the source holds several entries; their conditions need not be identical. Equal entries are not always repeated. Inconclusive results and toxic doses are left out.

System: P388 leukemia ip, CD2F1 mice, survival T/C
Experiment: NCI In Vivo Anticancer Drug Screen. Data for tumor model P388 Leukemia (intraperitoneal) in CD2F1 (CDF1) mice
Settings: endpoint: median survival time, higher = longer survival
Outline: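 Mice carrying the transplanted tumor received test compound or vehicle. Survival was recorded in each group, and the value is the treated-group measurement divided by that of the vehicle-treated control group.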

[1] = dose: 60.0 mg/kg/injection, schedule: Q01DX005 (ip), vehicle: saline with Tween-80
[2] = dose: 120.0 mg/kg/injection, schedule: Q01DX005 (ip), vehicle: saline with Tween-80
[3] = dose: 240.0 mg/kg/injection, schedule: Q01DX005 (ip), vehicle: saline with Tween-80
[4] = dose: 50.0 mg/kg/injection, schedule: Q01DX005 (ip), vehicle: saline with Tween-80
[5] = dose: 100.0 mg/kg/injection, schedule: Q01DX005 (ip), vehicle: saline with Tween-80
[6] = dose: 200.0 mg/kg/injection, schedule: Q01DX005 (ip), vehicle: saline with Tween-80
[7] = dose: 50.0 mg/kg/injection, schedule: Q01DX009 (ip), vehicle: saline with Tween-80
[8] = dose: 100.0 mg/kg/injection, schedule: Q01DX009 (ip), vehicle: saline with Tween-80
[9] = dose: 200.0 mg/kg/injection, schedule: Q01DX009 (ip), vehicle: saline with Tween-80

Cc1cc(=O)n2[nH]c(-c3ccco3)cc2n1
T/C [1]: 104 % of control
T/C [2]: 104 % of control
T/C [3]: 105 % of control

CCCNc1nc2c(c(=O)n1-c1ccccc1)C=C(C(=O)OC)CCN2S(=O)(=O)c1ccc(C)cc1
T/C [1]: 108 % of control
T/C [2]: 101 % of control
T/C [3]: 105 % of control

C[C@H](N)C(=O)N[C@@H]1[C@H]2C(=C(O)C[C@@H](O)[C@@H]2O)C(=O)O[C@]1(C)C(Cl)Cl
T/C (dose: 0.78 mg/kg/injection, schedule: Q01DX009 (ip), vehicle: Klucel (hydroxypropylcellulose) (HPC)): 150 % of control and 167 % of control
T/C (dose: 1.56 mg/kg/injection, schedule: Q01DX009 (ip), vehicle: Klucel (hydroxypropylcellulose) (HPC)): 161 % of control and 187 % of control and 205 % of control
T/C (dose: 3.12 mg/kg/injection, schedule: Q01DX009 (ip), vehicle: Klucel (hydroxypropylcellulose) (HPC)): 117 % of control and 118 % of control

COc1ccc([P+](CCN2C(=O)c3ccccc3C2=O)(c2ccc(OC)cc2)c2ccc(OC)cc2)cc1
T/C (dose: 0.78 mg/kg/injection, schedule: Q01DX009 (ip), vehicle: water): 121 % of control
T/C (dose: 1.56 mg/kg/injection, schedule: Q01DX009 (ip), vehicle: water): 114 % of control
T/C (dose: 2.7 mg/kg/injection, schedule: Q01DX009 (ip), vehicle: water): 116 % of control
T/C (dose: 3.13 mg/kg/injection, schedule: Q01DX009 (ip), vehicle: water): 121 % of control
T/C (dose: 12.5 mg/kg/injection, schedule: Q01DX009 (ip), vehicle: water): 92 % of control

NCCC1CCCCN1 (configuration not stated)
T/C (dose: 50.0 mg/kg/injection, schedule: Q01DX001 (ip), vehicle: saline): 95 % of control
T/C (dose: 100.0 mg/kg/injection, schedule: Q01DX001 (ip), vehicle: saline): 105 % of control
T/C (dose: 200.0 mg/kg/injection, schedule: Q01DX001 (ip), vehicle: saline): 105 % of control

Nc1nc(N)c2c(Cl)c(CNc3ccc(C(=O)NC(CC(=O)O)CC(=O)O)cc3)ccc2n1
T/C (dose: 1.5 mg/kg/injection, schedule: Q01DX005 (ip), vehicle: saline with Tween-80): 155 % of control
T/C (dose: 3.0 mg/kg/injection, schedule: Q01DX005 (ip), vehicle: saline with Tween-80): 174 % of control
T/C (dose: 6.0 mg/kg/injection, schedule: Q01DX005 (ip), vehicle: saline with Tween-80): 202 % of control
T/C (dose: 6.25 mg/kg/injection, schedule: Q01DX005 (ip), vehicle: saline with Tween-80): 235 % of control
T/C (dose: 12.0 mg/kg/injection, schedule: Q01DX005 (ip), vehicle: saline with Tween-80): 275 % of control

CC(C)CC(CC(C)C)[N+](=O)[O-]
T/C [4]: 111 % of control
T/C [5]: 105 % of control
T/C [6]: 107 % of control

O=[N+]([O-])c1ccc(/C=C/C=C\c2cccc(S(=O)(=O)F)c2)c(Cl)c1
T/C (dose: 100.0 mg/kg/injection, schedule: Q04DX003 (ip), vehicle: Klucel (hydroxypropylcellulose) (HPC)): 90 % of control
T/C (dose: 200.0 mg/kg/injection, schedule: Q04DX003 (ip), vehicle: Klucel (hydroxypropylcellulose) (HPC)): 90 % of control
T/C (dose: 400.0 mg/kg/injection, schedule: Q04DX003 (ip), vehicle: Klucel (hydroxypropylcellulose) (HPC)): 90 % of control

O=C(/C=C/c1ccc([N+](=O)[O-])cc1)NN=C(c1ccccc1)c1ccccc1
T/C [7]: 106 % of control and 96 % of control
T/C [8]: 99 % of control and 91 % of control
T/C [9]: 98 % of control
T/C (dose: 400.0 mg/kg/injection, schedule: Q01DX009 (ip), vehicle: saline with Tween-80): 99 % of control

NC(=O)c1ccc(-c2csc(=S)[nH]2)s1
T/C [7]: 100 % of control and 105 % of control
T/C [8]: 101 % of control and 108 % of control
T/C [9]: 96 % of control

O=C(/C=C/c1ccccc1)/C=C/c1ccccc1 (tested in a mixture with another compound)
T/C [1]: 98 % of control
T/C [2]: 91 % of control
T/C [3]: 91 % of control

Nc1nc(Nc2ccccc2)nc(SCc2ccccc2)n1
T/C (dose: 25.0 mg/kg/injection, schedule: Q01DX009 (ip), vehicle: saline with Tween-80): 99 % of control
T/C [7]: 90 % of control
T/C [8]: 88 % of control

O=C(O)c1ccc2ncc(-c3ccccc3)nc2c1
T/C (dose: 50.0 mg/kg/injection, schedule: Q01DX005 (ip), vehicle: Klucel (hydroxypropylcellulose) (HPC)): 100 % of control
T/C (dose: 100.0 mg/kg/injection, schedule: Q01DX005 (ip), vehicle: Klucel (hydroxypropylcellulose) (HPC)): 100 % of control
T/C (dose: 200.0 mg/kg/injection, schedule: Q01DX005 (ip), vehicle: Klucel (hydroxypropylcellulose) (HPC)): 95 % of control

CC(=O)OCCS(=O)Cc1ccccc1 (configuration not stated)
T/C (dose: 60.0 mg/kg/injection, schedule: Q01DX005 (ip), vehicle: saline): 92 % of control
T/C (dose: 120.0 mg/kg/injection, schedule: Q01DX005 (ip), vehicle: saline): 94 % of control
T/C (dose: 240.0 mg/kg/injection, schedule: Q01DX005 (ip), vehicle: saline): 100 % of control

CCOc1ccc(CO)cc1
T/C (dose: 100.0 mg/kg/injection, schedule: Q04DX003 (ip), vehicle: saline with Tween-80): 120 % of control
T/C (dose: 200.0 mg/kg/injection, schedule: Q04DX003 (ip), vehicle: saline with Tween-80): 120 % of control
T/C (dose: 400.0 mg/kg/injection, schedule: Q04DX003 (ip), vehicle: saline with Tween-80): 120 % of control

COc1cccc2c1C(=O)c1c(O)c3c(c(O)c1C2=O)C[C@@](O)(/C(C)=N\NC=O)C[C@@H]3OC1CC(N)C(O)C(C)O1 (some centres not stated)
T/C (dose: 0.65 mg/kg/injection, schedule: Q01DX009 (ip), vehicle: saline): 150 % of control
T/C (dose: 1.08 mg/kg/injection, schedule: Q01DX009 (ip), vehicle: saline): 150 % of control
T/C (dose: 1.8 mg/kg/injection, schedule: Q01DX009 (ip), vehicle: saline): 159 % of control
T/C (dose: 3.0 mg/kg/injection, schedule: Q01DX009 (ip), vehicle: saline): 163 % of control
T/C (dose: 3.0 mg/kg/injection, schedule: Q04DX003 (ip), vehicle: saline): 150 % of control
T/C (dose: 5.0 mg/kg/injection, schedule: Q01DX009 (ip), vehicle: saline): 163 % of control
T/C (dose: 5.0 mg/kg/injection, schedule: Q04DX003 (ip), vehicle: saline): 154 % of control
T/C (dose: 8.0 mg/kg/injection, schedule: Q01DX001 (ip), vehicle: saline): 154 % of control
T/C (dose: 8.0 mg/kg/injection, schedule: Q01DX009 (ip), vehicle: saline): 177 % of control
T/C (dose: 8.0 mg/kg/injection, schedule: Q04DX003 (ip), vehicle: saline): 172 % of control
T/C (dose: 13.3 mg/kg/injection, schedule: Q01DX001 (ip), vehicle: saline): 154 % of control
T/C (dose: 22.2 mg/kg/injection, schedule: Q01DX001 (ip), vehicle: saline): 172 % of control
T/C (dose: 22.2 mg/kg/injection, schedule: Q04DX003 (ip), vehicle: saline): 190 % of control
T/C (dose: 37.0 mg/kg/injection, schedule: Q01DX001 (ip), vehicle: saline): 181 % of control

CC1=C(O)CC(/C(C)=C/Cl)OC1=O (configuration not stated)
T/C (dose: 100.0 mg/kg/injection, schedule: Q04DX002 (ip), vehicle: Klucel (hydroxypropylcellulose) (HPC)): 103 % of control
T/C (dose: 200.0 mg/kg/injection, schedule: Q04DX002 (ip), vehicle: Klucel (hydroxypropylcellulose) (HPC)): 107 % of control
T/C (dose: 400.0 mg/kg/injection, schedule: Q04DX002 (ip), vehicle: Klucel (hydroxypropylcellulose) (HPC)): 102 % of control

OCC(O)C(O)C1[O][Sb][O]C1CO (configuration not stated)
T/C [4]: 100 % of control and 101 % of control
T/C [5]: 96 % of control and 100 % of control and 104 % of control
T/C [6]: 100 % of control and 96 % of control and 104 % of control

CCOC(=O)N/N=C/c1ccc[nH]1
T/C (dose: 1.8 mg/kg/injection, schedule: Q01DX005 (ip), vehicle: saline with Tween-80): 100 % of control
T/C (dose: 3.75 mg/kg/injection, schedule: Q01DX005 (ip), vehicle: saline with Tween-80): 100 % of control
T/C (dose: 7.5 mg/kg/injection, schedule: Q01DX005 (ip), vehicle: saline with Tween-80): 101 % of control and 103 % of control

Cc1c(-c2ccccc2)n(O)c(-c2ccc(N(C)C)cc2)[n+]1[O-]
T/C [7]: 98 % of control
T/C [8]: 92 % of control
T/C [9]: 91 % of control

CCOC(=O)c1cnc2cc3c(cc2c1Nc1cccc(C)c1)OCO3
T/C (dose: 60.0 mg/kg/injection, schedule: Q01DX005 (ip), vehicle: Klucel (hydroxypropylcellulose) (HPC)): 95 % of control
T/C (dose: 120.0 mg/kg/injection, schedule: Q01DX005 (ip), vehicle: Klucel (hydroxypropylcellulose) (HPC)): 99 % of control
T/C (dose: 240.0 mg/kg/injection, schedule: Q01DX005 (ip), vehicle: Klucel (hydroxypropylcellulose) (HPC)): 91 % of control

CCN(CC)C(=O)N(O)C1CCCCC1
T/C [1]: 105 % of control
T/C [2]: 97 % of control
T/C [3]: 103 % of control
